Data taken from patent US20110287110A1, “COMBINATION CANCER TREATMENT” (priority 2010, published 2011).

Assays:
[1] = system: bladder cancer cell lines (5637, J82, RT4, MB49, MBT2, NBT2); assay: Clonogenic survival assay, sensitivity to cisplatin in bladder cancer cell lines; assay type: cell-based, human and rodent; settings: cells expressing higher basal levels of Ctr1 (5637 and MBT2) vs other lines; cisplatin 1, 5, 10, or 50 μM for 2 hours; FIG. 1
Experimental: Bladder cell lines (5637, J82, RT4, MB49, MBT2, and NBT2) were kindly provided by Brant A. Inman, MD. J82, NBT2, MB49, and MBT2 cells were cultured in Dulbecco's modified Eagle's medium (DMEM) containing 10% fetal bovine serum (FBS) and 1% antibiotic-antimycotic (AA; Invitrogen). RT4 and 5637 cells were cultured in McCoy's 5A modified medium and RPMI-1640 medium, respectively, containing 10% FBS and 1% AA. The WT and Ctr1−/− MEF cell lines as well as the Ctr1 antibody were kindly provided by Dennis J. Thiele, PhD. MEF cells were cultured in DMEM containing 20% FBS, 1% L-Glutamine-Penicillin-Streptomycin (Sigma), 1% sodium pyruvate, 1% nonessential amino acids, 0.5 mg/L uridine (Sigma), and 55 μM 2-mercaptoethanol. […]
Basal Ctr1 protein expression was assessed using Western blot in several different human (5637, J82, and RT4) and rodent (MB49, MBT2, and NBT2) bladder cancer cell lines. […] Samples were centrifuged at 12,000 rpm, and 100 μg of protein was separated using 4-20% SDS-PAGE, transferred to PVDF membrane and detected by chemiluminescence using anti-Ctr1 antibody (1:1000; kindly provided by Dennis J. Thiele, PhD) followed by anti-rabbit HRP antibody (1:2000; Bio-Rad). Sensitivity to cisplatin was assessed using a clonogenic survival assay. […] Cells were incubated until colonies (50+ cells) were detected (7-14 days). Colonies were then stained using crystal violet and counted.

[2] = system: WT and Ctr1−/− mouse embryonic fibroblasts (MEFs); assay: Clonogenic survival assay, sensitivity to cisplatin in WT and Ctr1−/− MEFs; assay type: cell-based; settings: cisplatin 1, 5, or 10 μM for 2 hours, FIG. 2
Experimental: (§1) Bladder cell lines (5637, J82, RT4, MB49, MBT2, and NBT2) were kindly provided by Brant A. Inman, MD. J82, NBT2, MB49, and MBT2 cells were cultured in Dulbecco's modified Eagle's medium (DMEM) containing 10% fetal bovine serum (FBS) and 1% antibiotic-antimycotic (AA; Invitrogen). RT4 and 5637 cells were cultured in McCoy's 5A modified medium and RPMI-1640 medium, respectively, containing 10% FBS and 1% AA. The WT and Ctr1−/− MEF cell lines as well as the Ctr1 antibody were kindly provided by Dennis J. Thiele, PhD. MEF cells were cultured in DMEM containing 20% FBS, 1% L-Glutamine-Penicillin-Streptomycin (Sigma), 1% sodium pyruvate, 1% nonessential amino acids, 0.5 mg/L uridine (Sigma), and 55 μM 2-mercaptoethanol. All cells were maintained at 37° C. and at 5% CO2.
Basal Ctr1 protein expression was assessed using western blot in WT and Ctr1−/− mouse embryonic fibroblasts (MEFs). Sensitivity to cisplatin was assessed using a clonogenic survival assay. Briefly, a known density of cells was plated in 6-well plates. Approximately 18-24 hours after plating, cells were exposed to cisplatin (1, 5, or 10 μM; APP Pharmaceuticals; 50 mg/50 mL) or saline for 2 hours. […] Cells were incubated until colonies (50+ cells) were detected (7-14 days). Colonies were then stained using crystal violet and counted.

WT and Ctr1−/− MEFs [3] = assay: Cisplatin uptake/accumulation (intracellular platinum by ICP-AES) in MEFs; assay type: cell-based, mouse; settings: cisplatin 100 μg/mL
Experimental: as §1
WT and Ctr1−/− MEFs were plated into T175 flasks and treated with concurrent hyperthermia (42° C.) or normothermia (37° C.) and cisplatin (100 μg/mL; APP Pharmaceuticals; 50 mg/50 mL) for 1 hour. Following this 1 hour incubation, cells were incubated with cisplatin for an additional hour at 37° C. Cells were then washed twice with PBS and harvested into 1 mL of 3N HCl and 10% TCA. Samples were digested at 70° C. for 18 hours and centrifuged at 20,800×g for 5 minutes. The supernatants were collected, and intracellular platinum accumulation was measured using inductively coupled plasma atomic emission spectroscopy (ICP-AES) at the EPA, Chapel Hill, N.C.

WT and Ctr1−/− MEFs [4] = assay: Platinum-DNA adduct formation (immunofluorescence) in MEFs; assay type: cell-based, mouse; settings: WT compared to Ctr1−/− cells, particularly following hyperthermia; 50 μg/mL cisplatin; FIG. 4
Experimental: as §1
WT and Ctr1−/− MEFs were plated on coverslips (80,000-90,000 cells) in 6-well plates. Approximately 24-48 hours after plating, cells were treated with or without concurrent mild hyperthermia (42° C.) or normothermia (37° C.) and 50 μg/mL cisplatin (APP Pharmaceuticals; 50 mg/50 mL) for 1 hour. Following this initial 1 hour treatment, cells were incubated for 3 additional hours at 37° C. Following treatment, platinum-DNA adducts were stained using immunofluorescence. […] Cells were imaged using a Zeiss Axio Imager widefield fluorescence microscope (Carl Zeiss MicroImaging).

Ctr1 = settings: cells with Ctr1 deleted; Ishida et al. 2002, Larson et al. 2009; cited from earlier work

Compound: N.N.[Cl][Pt][Cl] [cisplatin, cis-diamminedichloroplatinum (II)]
- Sensitivity to cisplatin (clonogenic survival) [1]: more sensitive
- Sensitivity to cisplatin (clonogenic survival) ([2]; Ctr1−/− MEFs (do not express Ctr1)): more resistant
- Sensitivity to cisplatin (clonogenic survival) ([2]; WT MEFs (higher basal Ctr1)): more sensitive
- Further increase in platinum uptake after hyperthermia (WT and Ctr1−/− MEFs [3]; Ctr1−/− cells, hyperthermia 42° C. vs normothermia 37° C.): not observed
- Platinum levels (intracellular platinum accumulation) (WT and Ctr1−/− MEFs [3]; WT cells compared to Ctr1−/− cells, with and without hyperthermia (42° C.), FIG. 3): Higher platinum levels
- Platinum uptake after hyperthermia (WT and Ctr1−/− MEFs [3]; WT cells, hyperthermia 42° C. vs normothermia 37° C.): further increase
- Percentages of adduct-positive cells and adduct formation (WT and Ctr1−/− MEFs [4]): Higher
- Cisplatin resistance (Ctr1): increased
- Cisplatin uptake (Ctr1): decreased
